Results from patent US9855270B2, “Methods and compositions for modulating estrogen receptor mutants” (priority 2014, dated 2018).
Like-named read-outs stand apart in the source and are kept apart here.

Columns and labels:
[1] = test system: MCF-7 cells stably expressing ER-α mutants; settings: 5 day proliferation assays; depending on the mutation and assay format
Method: Potency and efficacy of ERM 1-3 were measured in vitro in ER dependent transcriptional reporter assays and viability assays of MCF-7 cells stably expressing ER-α mutants.
(§1) MCF-7 Mutant ER-α Stable Cell Line Generation: MCF-7 cells stably expressing wild-type or ER-α mutants were generated by subcloning ESR1 wild-type and mutant cDNAs containing an amino terminal hemagglutinin tag into pCDH-EF1-MCS-(PGK-Puro) (referred to as EF1 HA-ER-α) and pCDH-UbC-MCS-EF1-Hygro (referred to as UbC HA-ER-α) (System Biosciences). The resulting plasmids, in addition to an empty vector negative control, were subsequently cotransfected into HEK293T cells with the pPACKH1 packaging plasmid mix (System Biosciences) according to the manufacturer's protocol. Four days post transfection lentiviral particles were purified from the cell medium, tiered and stored at −80° C. MCF-7 cells were transduced with the purified viral particles and stable cell lines were selected by growth in RPMI containing 10% FBS plus 1 μG/mL puromycin or 200 μG/mL hygromycin for pCDH-EF1-MCS-(PGK-Puro) and pCDH-UbC-MCS-EF1-Hygro, respectively.
MCF-7 Stable Cell Line Viability: MCF-7 cells were enumerated with a hemacytometer adjusted to a concentration of 40,000 cells per mL in Phenol Free RPMI containing 10% CSS with NEAA and Sodium Pyruvate. 16 microliters of the cell suspension was added to each well of a 384 well tissue culture treated white clear bottom polystyrene plate (Corning) using a Matrix 16 channel electronic pipette. The cells were incubated overnight to allow the cells to adhere. […] The “average” of the relative luminescence units (RLUs) of the wells are considered to be the baseline value at time=zero. […] The relative luminescence units (RLUs) of each well were measured, and relative proliferation (fold) of each sample was determined as follows: (RLU sample−RLU background)/(RLU at T=0)=relative proliferation
Potency and efficacy of ERM 4-23 were measured in vitro in ER dependent transcriptional reporter assays and viability assays of MCF-7 cells stably expressing ER-α mutants.

[2] = test system: MCF-7 cells stably expressing EF1 HA-ER-α L536R; assay: cells; type: cell-based; settings: EF1 HA-ER-α L536R; for Percent inhibition compared to vehicle: 5-Day Incubation; for Efficacy (Emax): Day 5 relative to Day 0; for EC50: Homo sapiens, MCF7, read-out: Potency (EC50; nM)
Source text: as §1
(§2) MCF-7 Stable Cell Line Viability: MCF-7 cells were enumerated with a hemacytometer adjusted to a concentration of 40,000 cells per mL in Phenol Free RPMI containing 10% CSS with NEAA and Sodium Pyruvate. 16 microliters of the cell suspension was added to each well of a 384 well tissue culture treated white clear bottom polystyrene plate (Corning) using a Matrix 16 channel electronic pipette. The cells were incubated overnight to allow the cells to adhere. The following day, 16 microliters of Phenol Free RPMI containing 10% CSS with NEAA and Sodium Pyruvate was added to the wells of one plate, followed by 16 μL of CellTiter-Glo (Promega, Madison Wis.) luminescent cell viability reagent using a Matrix 16 channel electronic pipette. […] The “average” of the relative luminescence units (RLUs) of the wells are considered to be the baseline value at time=zero. In addition, a 10 point, 1:5 serial dilution in DMSO (Sigma-Aldrich) was performed using Matrix 12 channel electronic pipette, including DMSO only as […]. 4 μL of each dilution was then added to 196 μL of RPMI containing 10% CSS with NEAA and Sodium Pyruvate. 16 μL of medium containing compound was added to the cells at a final concentration ranging from 10 μM to 5 pM. Compound dilution in media and subsequent addition to cells were carried out using Matrix 12 channel electronic pipettes. After 5 day compound exposure, 16 μL of CellTiter-Glo (Promega, Madison Wis.) luminescent cell viability reagent was added to the cells using a Matrix 16 channel electronic pipette. CellTiter-Glo added to 32 μL of medium without cells was used to obtain a background value. […] The relative luminescence units (RLUs) of each well were measured, and relative proliferation (fold) of each sample was determined as follows: (RLU sample−RLU background)/(RLU at T=0)=relative proliferation
(§3) The UbC promoter is reported by the manufacturer (System Biosciences) to express low to moderate RNA levels while the EF1 promoter expresses high levels (System Biosciences).

[3] = test system: MCF-7 cells stably expressing UbC HA-ER-α E380Q; assay: cells; type: cell-based; settings: UbC HA-ER-α E380Q; for EC50: Homo sapiens, MCF7, read-out: Potency (EC50; nM); for Percent inhibition compared to vehicle: 5-Day Incubation; for Efficacy (Emax): Day 5 relative to Day 0
Source text: as §1, §2, §3

[4] = test system: MCF-7 cells stably expressing UbC HA-ER-α L536P; assay: cells; type: cell-based; settings: for EC50: Homo sapiens, MCF7, read-out: Potency (EC50; nM)
Source text: as §1, §2, §3

[5] = test system: MCF-7 cells stably expressing UbC HA-ER-α L536R; assay: cells; type: cell-based; settings: UbC HA-ER-α L536R; for EC50: Homo sapiens, MCF7, read-out: Potency (EC50; nM); for Percent inhibition compared to vehicle: 5-Day Incubation; for Efficacy (Emax): Day 5 relative to Day 0
Source text: as §1, §2, §3

[6] = test system: MCF-7 cells stably expressing EF1 HA-ER-α Y537N; assay: cells; type: cell-based; settings: EF1 HA-ER-α Y537N; for Percent inhibition compared to vehicle: 5-Day Incubation; for Efficacy (Emax): Day 5 relative to Day 0; for EC50: Homo sapiens, MCF7, read-out: Potency (EC50; nM)
Source text: as §1, §2, §3

[7] = test system: MCF-7 cells stably expressing EF1 HA-ER-α L536P; assay: cells; type: cell-based; settings: EF1 HA-ER-α L536P; for Percent inhibition compared to vehicle: 5-Day Incubation; for Efficacy (Emax): Day 5 relative to Day 0; for EC50: Homo sapiens, MCF7, read-out: Potency (EC50; nM)
Source text: as §1, §2, §3

[8] = test system: MCF-7 cells stably expressing EF1 HA-ER-α E380Q; assay: cells; type: cell-based; settings: EF1 HA-ER-α E380Q; for Percent inhibition compared to vehicle: 5-Day Incubation; for Efficacy (Emax): Day 5 relative to Day 0; for EC50: Homo sapiens, MCF7, read-out: Potency (EC50; nM)
Source text: as §1, §2, §3

[9] = test system: MCF-7 cells stably expressing UbC HA-ER-α Y537N; assay: cells; type: cell-based; settings: UbC HA-ER-α Y537N; for EC50: Homo sapiens, MCF7, read-out: Potency (EC50; nM); for Percent inhibition compared to vehicle: 5-Day Incubation; for Efficacy (Emax): Day 5 relative to Day 0
Source text: as §1, §2, §3

[10] = Antagonist Mode, −E2 (Table 27)

CC1=C(c2cccc(O)c2)[C@H](c2ccc(OCCN3CC(CF)C3)cc2)Oc2ccc(O)cc21 [Compound 4-23, (S)-2-(4-(2-(3-(fluoromethyl)azetidin-1-yl)ethoxy)phenyl)-3-(3-hydroxyphenyl)-4-methyl-2H-chromen-6-ol]
reduced the number of viable cells (compared to DMSO control) [1]: 49%-90%
Percent inhibition compared to vehicle ([2]; Agonist Mode, −E2): 57%
Efficacy (Emax) ([2]; Agonist Mode, −E2): 2.94 ± 0.34
Percent inhibition compared to vehicle ([2]; Antagonist Mode, +E2): 60%
Efficacy (Emax) ([2]; Antagonist Mode, +E2): 2.76 ± 0.50
EC50 ([2]; Antagonist Mode, +E2): 53.3 ± 65.8 nM
EC50 [2, 10]: 11.3 ± 9.22 nM
EC50 ([3]; Agonist Mode, −E2): 0.208 ± 0.141 nM
EC50 ([3]; Antagonist Mode, +E2): 1.02 ± 0.163 nM
Percent inhibition compared to vehicle ([3]; Agonist Mode, −E2): 58%
Efficacy (Emax) ([3]; Agonist Mode, −E2): 1.78 ± 0.28
Percent inhibition compared to vehicle ([3]; Antagonist Mode, +E2): 77%
Efficacy (Emax) ([3]; Antagonist Mode, +E2): 1.61 ± 0.34
Percent inhibition compared to vehicle ([4]; Agonist Mode, −E2, 5-Day Incubation): 49%
Efficacy (Emax) ([4]; Agonist Mode, −E2, Day 5 relative to Day 0): 1.62 ± 0.13
Percent inhibition compared to vehicle ([4]; Antagonist Mode, +E2, 5-Day Incubation): 69%
Efficacy (Emax) ([4]; Antagonist Mode, +E2, Day 5 relative to Day 0): 1.87 ± 0.27
EC50 ([4]; Agonist Mode, −E2): 0.231 ± 0.104 nM
EC50 ([4]; Antagonist Mode, +E2): 2.09 ± 0.425 nM
EC50 ([5]; Agonist Mode, −E2): 0.334 ± 0.27 nM
EC50 ([5]; Antagonist Mode, +E2): 2.58 ± 0.181 nM
Percent inhibition compared to vehicle ([5]; Agonist Mode, −E2): 53%
Efficacy (Emax) ([5]; Agonist Mode, −E2): 1.80 ± 0.26
Percent inhibition compared to vehicle ([5]; Antagonist Mode, +E2): 71%
Efficacy (Emax) ([5]; Antagonist Mode, +E2): 1.73 ± 0.31
Percent inhibition compared to vehicle ([6]; Agonist Mode, −E2): 88%
Efficacy (Emax) ([6]; Agonist Mode, −E2): 0.74 ± 0.01
Percent inhibition compared to vehicle ([6]; Antagonist Mode, +E2): 87%
Efficacy (Emax) ([6]; Antagonist Mode, +E2): 0.70 ± 0.01
EC50 ([6]; Antagonist Mode, +E2): 45.5 ± 51.7 nM
EC50 [6, 10]: 16 ± 17.6 nM
Percent inhibition compared to vehicle ([7]; Agonist Mode, −E2): 62%
Efficacy (Emax) ([7]; Agonist Mode, −E2): 3.11 ± 0.40
Percent inhibition compared to vehicle ([7]; Antagonist Mode, +E2): 64%
Efficacy (Emax) ([7]; Antagonist Mode, +E2): 3.25 ± 0.07
EC50 ([7]; Antagonist Mode, +E2): 15.1 ± 13.6 nM
EC50 [7, 10]: 4.78 ± 4.67 nM
Percent inhibition compared to vehicle ([8]; Agonist Mode, −E2): 63%
Efficacy (Emax) ([8]; Agonist Mode, −E2): 2.43 ± 0.02
Percent inhibition compared to vehicle ([8]; Antagonist Mode, +E2): 62%
Efficacy (Emax) ([8]; Antagonist Mode, +E2): 2.39 ± 0.24
EC50 ([8]; Antagonist Mode, +E2): 14 ± 15.4 nM
EC50 [8, 10]: 3.76 ± 3.11 nM
EC50 ([9]; Agonist Mode, −E2): 0.446 ± 0.219 nM
EC50 ([9]; Antagonist Mode, +E2): 2.64 ± 1.86 nM
Percent inhibition compared to vehicle ([9]; Agonist Mode, −E2): 62%
Efficacy (Emax) ([9]; Agonist Mode, −E2): 1.63 ± 0.17
Percent inhibition compared to vehicle ([9]; Antagonist Mode, +E2): 74%
Efficacy (Emax) ([9]; Antagonist Mode, +E2): 1.70 ± 0.03
